Assay results as given in patent US20230365592A1 (Agios Pharmaceuticals, Inc., priority 2022, published 2023).

Each compound was assayed against T1, human PAH with the R408W mutation (Homo sapiens, UniProt P00439, R408W) (assay: Cell Based Phenylalanine Flux Assay). Conditions: A375 cells expressing human PAH R408W; 24 hrs compound incubation; 13C-Tyrosine by LC-MS; average where tested multiple times; read-out: AC50.
T1 construct: expressed in transfected cells
T1 sequence (P00439 1-452 R408W): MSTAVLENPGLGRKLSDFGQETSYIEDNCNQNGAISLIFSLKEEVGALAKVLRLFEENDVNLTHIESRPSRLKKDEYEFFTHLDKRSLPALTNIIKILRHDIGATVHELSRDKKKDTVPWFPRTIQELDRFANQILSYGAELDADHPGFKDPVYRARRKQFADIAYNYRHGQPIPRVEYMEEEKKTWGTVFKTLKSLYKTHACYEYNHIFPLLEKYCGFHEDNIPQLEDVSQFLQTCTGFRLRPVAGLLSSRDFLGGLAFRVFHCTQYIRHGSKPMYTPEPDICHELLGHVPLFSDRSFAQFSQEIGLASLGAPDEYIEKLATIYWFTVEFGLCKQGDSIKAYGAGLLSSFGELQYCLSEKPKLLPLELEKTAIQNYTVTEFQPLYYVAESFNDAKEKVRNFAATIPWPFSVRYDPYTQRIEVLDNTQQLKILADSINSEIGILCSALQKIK
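Also: after compound treatment, cells received sepiapterin plus isotope-labelled Phenylalanine for 4 hours, then labelled Tyrosine in the medium was quantified, 10-point 2-fold dilution series run in duplicate.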

AC50 [nM]	SMILES
> 5000	Cc1ccn2nc([C@H]3c4nc[nH]c4CCN3C(=O)c3nnc(-c4ccccn4)o3)cc2c1 [Example 2385, (R)-(4-(5-methylpyrazolo[1,5-a]pyridin-2-yl)-6,7-dihydro-1H-imidazo[4,5-c]pyridin-5(4H)-yl)(5-(pyridin-2-yl)-1,3,4-oxadiazol-2-yl)methanone]
1000 to 5000	O=C(c1ccnn1C1CC1)N1CCc2[nH]cnc2[C@H]1c1cc2ccccn2n1 [Example 2386, (S)-(1-cyclopropyl-1H-pyrazol-5-yl)(4-(pyrazolo[1,5-a]pyridin-2-yl)-6,7-dihydro-1H-imidazo[4,5-c]pyridin-5(4H)-yl)methanone]
1000 to 5000	O=C(c1ccnn1-c1ccccn1)N1CCc2[nH]cnc2[C@H]1c1cc2c(F)cccn2n1 [Example 2388, (S)-(4-(4-fluoropyrazolo[1,5-a]pyridin-2-yl)-6,7-dihydro-1H-imidazo[4,5-c]pyridin-5(4H)-yl)(1-(pyridin-2-yl)-1H-pyrazol-5-yl)methanone]
1000 to 5000	Cc1cc(C(=O)N2CCc3[nH]cnc3[C@H]2c2cc3c(F)cccn3n2)n(C)n1 [Example 2390, (S)-(1,3-dimethyl-1H-pyrazol-5-yl)(4-(4-fluoropyrazolo[1,5-a]pyridin-2-yl)-6,7-dihydro-1H-imidazo[4,5-c]pyridin-5(4H)-yl)methanone]
1000 to 5000	COc1cccn2nc([C@@H]3c4nc[nH]c4CCN3C(=O)c3nc(C)nn3C)cc12 [Example 2393, (S)-(1,3-dimethyl-1H-1,2,4-triazol-5-yl)(4-(4-methoxypyrazolo[1,5-a]pyridin-2-yl)-6,7-dihydro-1H-imidazo[4,5-c]pyridin-5(4H)-yl)methanone]
> 5000	Cc1cccc2cc([C@H]3c4nc[nH]c4CCN3C(=O)c3nnc(-c4cn(C)cn4)o3)nn12 [Example 2394, (R)-(5-(1-methyl-1H-imidazol-4-yl)-1,3,4-oxadiazol-2-yl)(4-(7-methylpyrazolo[1,5-a]pyridin-2-yl)-6,7-dihydro-1H-imidazo[4,5-c]pyridin-5(4H)-yl)methanone]
1000 to 5000	Cc1cccc2cc([C@@H]3c4nc[nH]c4CCN3C(=O)c3nnc(-c4cn(C)cn4)o3)nn12 [Example 2395, (S)-(5-(1-methyl-1H-imidazol-4-yl)-1,3,4-oxadiazol-2-yl)(4-(7-methylpyrazolo[1,5-a]pyridin-2-yl)-6,7-dihydro-1H-imidazo[4,5-c]pyridin-5(4H)-yl)methanone]
1000 to 5000	Cn1nc(C(F)F)nc1C(=O)N1CCc2[nH]cnc2[C@H]1c1cc2cccc(Cl)n2n1 [Example 2396, (S)-(4-(7-chloropyrazolo[1,5-a]pyridin-2-yl)-6,7-dihydro-1H-imidazo[4,5-c]pyridin-5(4H)-yl)(3-(difluoromethyl)-1-methyl-1H-1,2,4-triazol-5-yl)methanone]
1000 to 5000	Cn1nc(C(F)(F)F)nc1C(=O)N1CCc2[nH]cnc2[C@H]1c1cc2c(F)cccn2n1 [Example 2398, (S)-(4-(4-fluoropyrazolo[1,5-a]pyridin-2-yl)-6,7-dihydro-1H-imidazo[4,5-c]pyridin-5(4H)-yl)(1-methyl-3-(trifluoromethyl)-1H-1,2,4-triazol-5-yl)methanone]
1000 to 5000	Cn1nc(C(F)(F)F)nc1C(=O)N1CCc2[nH]cnc2[C@@H]1c1cc2c(F)cccn2n1 [Example 2399, (R)-(4-(4-fluoropyrazolo[1,5-a]pyridin-2-yl)-6,7-dihydro-1H-imidazo[4,5-c]pyridin-5(4H)-yl)(1-methyl-3-(trifluoromethyl)-1H-1,2,4-triazol-5-yl)methanone]
< 500	O=C(c1ocnc1C(F)F)N1CCc2[nH]cnc2[C@H]1c1cc2cc(F)ccn2n1 [Example 2400, (S)-(4-(difluoromethyl)oxazol-5-yl)(4-(5-fluoropyrazolo[1,5-a]pyridin-2-yl)-6,7-dihydro-1H-imidazo[4,5-c]pyridin-5(4H)-yl)methanone]
1000 to 5000	O=C(c1ocnc1C(F)F)N1CCc2[nH]cnc2[C@@H]1c1cc2cc(F)ccn2n1 [Example 2401, (R)-(4-(difluoromethyl)oxazol-5-yl)(4-(5-fluoropyrazolo[1,5-a]pyridin-2-yl)-6,7-dihydro-1H-imidazo[4,5-c]pyridin-5(4H)-yl)methanone]
1000 to 5000	Cc1ccc2cc([C@@H]3c4nc[nH]c4CCN3C(=O)c3nc(C(F)F)nn3C)nn2c1 [Example 2403, (S)-(3-(difluoromethyl)-1-methyl-1H-1,2,4-triazol-5-yl)(4-(6-methylpyrazolo[1,5-a]pyridin-2-yl)-6,7-dihydro-1H-imidazo[4,5-c]pyridin-5(4H)-yl)methanone]
> 5000	O=C(c1nnc(C2CC2)o1)N1CCc2[nH]cnc2[C@@H]1c1cc2ccc(F)cn2n1 [Example 2405, (R)-(5-cyclopropyl-1,3,4-oxadiazol-2-yl)(4-(6-fluoropyrazolo[1,5-a]pyridin-2-yl)-6,7-dihydro-1H-imidazo[4,5-c]pyridin-5(4H)-yl)methanone]
< 500	CC(C)(O)c1nc(C(F)F)c(C(=O)N2CCc3[nH]cnc3[C@H]2c2cc3cc(C(F)(F)F)ccn3n2)o1 [Example 2406, (S)-(4-(difluoromethyl)-2-(2-hydroxypropan-2-yl)oxazol-5-yl)(4-(5-(trifluoromethyl)pyrazolo[1,5-a]pyridin-2-yl)-6,7-dihydro-1H-imidazo[4,5-c]pyridin-5(4H)-yl)methanone]
1000 to 5000	CC(C)(C)c1nnc(C(=O)N2CCc3[nH]cnc3[C@H]2c2cc3cccc(C(F)(F)F)n3n2)o1 [Example 2409, (S)-(5-(tert-butyl)-1,3,4-oxadiazol-2-yl)(4-(7-(trifluoromethyl)pyrazolo[1,5-a]pyridin-2-yl)-6,7-dihydro-1H-imidazo[4,5-c]pyridin-5(4H)-yl)methanone]
500 to 1000	Cn1nc(C(F)F)nc1C(=O)N1CCc2[nH]cnc2[C@H]1c1cc2cc(C(F)(F)F)ccn2n1 [Example 2410, (S)-(3-(difluoromethyl)-1-methyl-1H-1,2,4-triazol-5-yl)(4-(5-(trifluoromethyl)pyrazolo[1,5-a]pyridin-2-yl)-6,7-dihydro-1H-imidazo[4,5-c]pyridin-5(4H)-yl)methanone]
1000 to 5000	Cn1nc(C(F)(F)F)nc1C(=O)N1CCc2[nH]cnc2[C@H]1c1cc2cccc(Cl)n2n1 [Example 2412, (S)-(4-(7-chloropyrazolo[1,5-a]pyridin-2-yl)-6,7-dihydro-1H-imidazo[4,5-c]pyridin-5(4H)-yl)(1-methyl-3-(trifluoromethyl)-1H-1,2,4-triazol-5-yl)methanone]
1000 to 5000	O=C(c1nnc(-c2ccccn2)o1)N1CCc2[nH]cnc2[C@H]1c1cc2ccc(C(F)(F)F)cn2n1 [Example 2414, (S)-(5-(pyridin-2-yl)-1,3,4-oxadiazol-2-yl)(4-(6-(trifluoromethyl)pyrazolo[1,5-a]pyridin-2-yl)-6,7-dihydro-1H-imidazo[4,5-c]pyridin-5(4H)-yl)methanone]
1000 to 5000	O=C(c1nnc(-c2ccccn2)o1)N1CCc2[nH]cnc2[C@@H]1c1cc2ccc(C(F)(F)F)cn2n1 [Example 2415, (R)-(5-(pyridin-2-yl)-1,3,4-oxadiazol-2-yl)(4-(6-(trifluoromethyl)pyrazolo[1,5-a]pyridin-2-yl)-6,7-dihydro-1H-imidazo[4,5-c]pyridin-5(4H)-yl)methanone]
1000 to 5000	Cn1cc(-c2nnc(C(=O)N3CCc4[nH]cnc4[C@@H]3c3cc4ccc(C(F)(F)F)cn4n3)o2)cn1 [Example 2417, (R)-(5-(1-methyl-1H-pyrazol-4-yl)-1,3,4-oxadiazol-2-yl)(4-(6-(trifluoromethyl)pyrazolo[1,5-a]pyridin-2-yl)-6,7-dihydro-1H-imidazo[4,5-c]pyridin-5(4H)-yl)methanone]
1000 to 5000	Cn1nc(C2CC2)nc1C(=O)N1CCc2[nH]cnc2[C@H]1c1cc2cccc(C(F)(F)F)n2n1 [Example 2419, (S)-(3-cyclopropyl-1-methyl-1H-1,2,4-triazol-5-yl)(4-(7-(trifluoromethyl)pyrazolo[1,5-a]pyridin-2-yl)-6,7-dihydro-1H-imidazo[4,5-c]pyridin-5(4H)-yl)methanone]
1000 to 5000	CC(C)(F)c1nnc(C(=O)N2CCc3[nH]cnc3[C@H]2c2cc3ccc(C(F)(F)F)cn3n2)o1 [Example 2420, (S)-(5-(2-fluoropropan-2-yl)-1,3,4-oxadiazol-2-yl)(4-(6-(trifluoromethyl)pyrazolo[1,5-a]pyridin-2-yl)-6,7-dihydro-1H-imidazo[4,5-c]pyridin-5(4H)-yl)methanone]
1000 to 5000	CC(C)(F)c1nnc(C(=O)N2CCc3[nH]cnc3[C@@H]2c2cc3ccc(C(F)(F)F)cn3n2)o1 [Example 2421, (R)-(5-(2-fluoropropan-2-yl)-1,3,4-oxadiazol-2-yl)(4-(6-(trifluoromethyl)pyrazolo[1,5-a]pyridin-2-yl)-6,7-dihydro-1H-imidazo[4,5-c]pyridin-5(4H)-yl)methanone]
1000 to 5000	Cc1nc([C@H](C)O)oc1C(=O)N1CCc2[nH]cnc2[C@H]1c1cc2cccc(C(F)(F)F)n2n1 [Example 2422, (2-((S)-1-hydroxyethyl)-4-methyloxazol-5-yl)((S)-4-(7-(trifluoromethyl)pyrazolo[1,5-a]pyridin-2-yl)-6,7-dihydro-1H-imidazo[4,5-c]pyridin-5(4H)-yl)methanone]
1000 to 5000	O=C(c1cnn2ccccc12)N1CCc2[nH]cnc2[C@H]1c1cc2cccc(Cl)n2n1 [Example 2424, (S)-(4-(7-chloropyrazolo[1,5-a]pyridin-2-yl)-6,7-dihydro-1H-imidazo[4,5-c]pyridin-5(4H)-yl)(pyrazolo[1,5-a]pyridin-3-yl)methanone]
